Legend:
[1] = tested on: Sprague Dawley Crl:CD(SD) rats; assay: Repeated daily oral gavage study in rats: hematology, serum iron, gross necropsy; type: in vivo; conditions: once per day oral gavage
Protocol: The test material solution or vehicle control was administered once per day by oral gavage administration, and individual dose volumes were calculated based on the most recent body weight data for each animal.
General health/mortality and moribundity checks were performed twice daily, and detailed clinical observations were performed on days 1, 8, and 15 prior to dosing. Hematology parameters were evaluated for all animals on days 1, 7, and 14. Blood collection for serum iron concentration evaluation was performed on these days as well, and blood samples were obtained via the orbital plexus while the animals were under light isoflurane anesthesia. All animals were subjected to complete gross necropsy examination at scheduled euthanasia.
Blood samples for hematology testing were collected in volumes of about 200 μL in tubes containing anticoagulant K2EDTA, and were evaluated for red blood cell count (RBC), hemoglobin concentration (Hb), hematocrit (Hct), mean corpuscular volume (MCV), mean corpuscular hemoglobin concentration (MCHC), mean corpuscular hemoglobin (MCH), reticulocyte count (Retic), red blood cell morphology, white blood cell count (WBC), neutrophil count (Neut), lymphocyte count (Lymph), monocyte count (Mono), eosinophil count (Eos), and basophil count (Baso). Serum iron was measured by taking about 1 mL blood samples in a serum separator tube.

[2] = total administration should not exceed; cited from earlier work
[3] = cited from earlier work
[4] = versus ferrous sulfate and/or ferrous fumarate, Newton et al. 1980, Piccinni et al. 1982

Compound | immune response (segmented neutrophils, platelets, lymphocytes) ([1]; Group 2 500 mg Fe/kg, Group 3 250 + 250 mg Fe/kg, hematology days 1, 7, 14) | gross internal findings at necropsy ([1]; Group 2 500 mg Fe/kg, Group 3 250 + 250 mg Fe/kg, scheduled euthanasia) | serum iron levels ([1]; ferrous fumarate 500 mg Fe/kg (Group 2), ferrous fumarate 250 + PIC 250 mg Fe/kg (Group 3), blood on days 1, 7, 14) | toxicity limits [2] | efficacy at increasing hemoglobin and hematocrit values [3, 4] | tolerability [3, 4] | gastrointestinal side effects ([3]; versus ferrous sulfate, Johnson et al., Niferex-150 in ESRD patients receiving EPOGEN)
O=C([O-])/C=C/C(=O)[O-].[Fe+2] [ferrous fumarate] | about the same | body fat depletion, thyroid nodules, reddened mandibular lymph nodes, reddened stomach mucosa, small thymus, foci on the thymus, and dark fecal matter | significant increases | 200 to 250 mg/kg |  |  | 
polysaccharide iron complex [PIC] |  |  |  |  | equivalent efficacy | better tolerated | fewer gastrointestinal side effects
